The text below walks through data of patent US9012398B2, “Acylated exendin-4 compounds” (priority 2006, dated 2015).

Like-named read-outs stand apart in the source and are kept apart here. Starred links: 1 amine or outer side, 2 acyl side, 3 side chain; linkers in the order of their positions; H or OH if unused. Residues, ends and D or L forms follow the SMILES beside them. Groups on a side chain read outwards from the residue. *: point of attachment. γGlu = O=C(O)[C@H](CCC(=O)[*:2])N[*:1]; Stearoyl = CCCCCCCCCCCCCCCCCC(=O)*; Palmitoyl = CCCCCCCCCCCCCCCC(=O)*; AEEA = NCCOCCOCC(=O)O

One data set has as its target T1, human GLP-1 receptor (Homo sapiens, UniProt P43220).
T1 construct: expressed in transfected cells; host or cells: BHK cells, clone BHK-467-12A; plasma membrane preparation
The data set can be described thus: Functional receptor assay: cAMP formation in plasma membranes of BHK cells expressing the cloned human GLP-1 receptor (GLP1cAMPma). The class given is biochemical. As to the method: The term “insulinotropic agent” as used herein means a compound which is an agonist of the human GLP-1 receptor, i.e. a compound which stimulates the formation of cAMP in a suitable medium containing the human GLP-1 receptor (one such medium disclosed below). The potency of an insulinotropic agent is determined by calculating the EC50 value from the dose-response curve as described below.
The cells were washed twice in phosphate buffered saline and harvested with Versene. Plasma membranes were prepared from the cells by homogenisation with an Ultraturrax in buffer 1 (20 mM HEPES-Na, 10 mM EDTA, pH 7.4). The homogenate was centrifuged at 48,000×g for 15 min at 4° C. The pellet was suspended by homogenization in buffer 2 (20 mM HEPES-Na, 0.1 mM EDTA, pH 7.4), then centrifuged at 48,000×g for 15 min at 4° C. The washing procedure was repeated one more time. The final pellet was suspended in buffer 2 and used immediately for assays or stored at −80° C.
The functional receptor assay was carried out by measuring cyclic AMP (cAMP) as a response to stimulation by the insulinotropic agent. cAMP formed was quantified by the AlphaScreen™ cAMP Kit (Perkin Elmer Life Sciences). Incubations were carried out in half-area 96-well microtiter plates in a total volume of 50 μL buffer 3 (50 mM Tris-HCl, 5 mM HEPES, 10 mM MgCl2, pH 7.4) and with the following additions: 1 mM ATP, 1 μM GTP, 0.5 mM 3-isobutyl-1-methylxanthine (IBMX), 0.01% Tween-20, 0.1% BSA, 6 μg membrane preparation, 15 μg/mL acceptor beads, 20 μg/mL donor beads preincubated with 6 nM biotinyl-cAMP. […] GTP was freshly prepared for each experiment. The plate was incubated in the dark with slow agitation for three hours at room temperature followed by counting in the Fusion™ instrument (Perkin Elmer Life Sciences). Concentration-response curves were plotted for the individual compounds and EC50 values estimated using a four-parameter logistic model with Prism v. 4.0 (GraphPad, Carlsbad, Calif.).
In general terms: Changes in cAMP serve as a functional read-out for many G protein-coupled receptors.

Data set [1] is described as follows: Chemical stability of solubilised peptide at 40° C., impurities monitored by RP-HPLC/UPLC. Conditions: for Formation rate of peptide related impurities at 40° C.: 2.5 weeks, 100 nmol peptide in 1 ml phosphate buffered saline, pH 7.4. It is filed as physicochemical. As to the method:
The chemical stability of solubilised acylated exendin-4 compounds were monitored by RP-HPLC following incubation at […]
The formation of exendin analogue related impurities relative to control samples stored in the freezer were monitored with a Waters UPLC system. Samples were applied to Acquity UPLC BEH C18 (1.7 μm) 2.1×50 mm column and eluted at a flow rate of 0.9 ml/min with linear stepwise gradients of acetonitrile in 0.1% trifluoroacetic acid (from 5 to 100% acetonitrile for 10 min, and from 100 to 5% acetonitrile for 1 min). The column was heated to 30 C and detection was performed at 214 nm.

[2] abbreviates: cAMP, membranes with human GLP-1 receptor, mean value, read-out: GLP1cAMPma (3693) [EC50 (nM)] Mean Value.

T1 sequence (P43220 24-463): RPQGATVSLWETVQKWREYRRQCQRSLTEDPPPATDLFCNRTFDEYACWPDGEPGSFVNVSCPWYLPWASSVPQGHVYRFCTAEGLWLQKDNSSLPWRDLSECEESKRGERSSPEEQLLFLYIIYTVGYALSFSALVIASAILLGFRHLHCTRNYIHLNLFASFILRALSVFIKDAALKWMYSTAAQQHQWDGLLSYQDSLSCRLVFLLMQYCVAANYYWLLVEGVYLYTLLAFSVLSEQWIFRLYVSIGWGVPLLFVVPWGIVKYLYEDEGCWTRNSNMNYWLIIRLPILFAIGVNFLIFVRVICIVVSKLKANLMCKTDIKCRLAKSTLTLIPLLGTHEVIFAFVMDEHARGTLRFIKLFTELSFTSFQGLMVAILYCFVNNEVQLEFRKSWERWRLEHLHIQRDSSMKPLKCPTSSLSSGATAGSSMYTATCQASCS

`CCCCCCCCCCCCCCCCCC(=O)NCCOCCOCC(=O)NCCOCCOCC(=O)NCCOCCOCC(=O)NCCCC[C@H](NC(=O)[C@@H](NC(=O)[C@H](C)NC(=O)[C@H](CCC(=O)O)NC(=O)[C@H](CCC(=O)O)NC(=O)[C@H](CCC(=O)O)NC(=O)[C@H](CC(C)C)NC(=O)[C@H](CCC(N)=O)NC(=O)[C@H](CCCNC(=N)N)NC(=O)[C@H](CO)NC(=O)[C@H](CC(C)C)NC(=O)[C@H](CC(=O)O)NC(=O)[C@H](CO)NC(=O)[C@@H](NC(=O)[C@H](Cc1ccccc1)NC(=O)[C@@H](NC(=O)CNC(=O)[C@H](CCC(=O)O)NC(=O)CNC(=O)[C@@H](N)Cc1c[nH]cn1)[C@@H](C)O)[C@@H](C)O)C(C)C)C(=O)N[C@@H](CC(C)C)C(=O)N[C@@H](Cc1ccccc1)C(=O)N[C@H](C(=O)N[C@@H](CCC(=O)O)C(=O)N[C@@H](Cc1c[nH]c2ccccc12)C(=O)N[C@@H](CC(C)C)C(=O)N[C@@H](CCCNC(=N)N)C(=O)N[C@@H](CCC(N)=O)C(=O)NCC(=O)NCC(=O)N1CCC[C@H]1C(=O)N[C@@H](CO)C(=O)N[C@@H](CO)C(=O)NCC(=O)N[C@@H](C)C(=O)N1CCC[C@H]1C(=O)N1CCC[C@H]1C(=O)N1CCC[C@H]1C(=O)N[C@@H](CO)C(N)=O)[C@@H](C)CC` [Example 14, N-ε^20-(2-(2-(2-(2-(2-(2-(2-(2-(2-(Octadecanoylamino)ethoxy)ethoxy)acetylamino)ethoxy)ethoxy)acetyl-amino)ethoxy)ethoxy)acetyl))[Arg^12,27,Gln^28,Leu^14,Lys^20 Exendin-4(1-39)amide] (H-HGEGTFTSDLSRQLEEEAVK([AEEA-AEEA-AEEA-Stearoyl])LFIEWLRQGGPSSGAPPPS-NH2; N-terminus assumed): the EC50 at human GLP-1 receptor (setting [2]) is 0.017 nM. For the same compound, the “Formation rate of peptide related impurities at 40° C.” value (“Formation rate … at 40° C.” below) in data set [1] was found to be 1.5 %/week.
In the case of `CCCCCCCCCCCCCCCC(=O)N[C@@H](CCC(=O)NCCOCCOCC(=O)NCCOCCOCC(=O)NCCCC[C@H](NC(=O)[C@H](CCC(N)=O)NC(=O)[C@H](CCCNC(=N)N)NC(=O)[C@H](CO)NC(=O)[C@H](CC(C)C)NC(=O)[C@H](CC(=O)O)NC(=O)[C@H](CO)NC(=O)[C@@H](NC(=O)[C@H](Cc1ccccc1)NC(=O)[C@@H](NC(=O)CNC(=O)[C@H](CCC(=O)O)NC(=O)CNC(=O)[C@@H](N)Cc1c[nH]cn1)[C@@H](C)O)[C@@H](C)O)C(=O)N[C@@H](CCC(=O)O)C(=O)N[C@@H](CCC(=O)O)C(=O)N[C@@H](CCC(=O)O)C(=O)N[C@@H](C)C(=O)N[C@H](C(=O)N[C@@H](CCCNC(=N)N)C(=O)N[C@@H](CC(C)C)C(=O)N[C@@H](Cc1ccccc1)C(=O)N[C@H](C(=O)N[C@@H](CCC(=O)O)C(=O)N[C@@H](Cc1c[nH]c2ccccc12)C(=O)N[C@@H](CC(C)C)C(=O)N[C@H](C(=O)N[C@@H](CCCNC(=N)N)C(=O)NCC(=O)NCC(=O)N1CCC[C@H]1C(=O)N[C@@H](CO)C(=O)N[C@@H](CO)C(=O)NCC(=O)N[C@@H](C)C(=O)N1CCC[C@H]1C(=O)N1CCC[C@H]1C(=O)N1CCC[C@H]1C(=O)N[C@@H](CO)C(N)=O)C(C)C)[C@@H](C)CC)C(C)C)C(=O)O` [Example 25] (H-HGEGTFTSDLSRQK([AEEA-AEEA-γGlu-Palmitoyl])EEEAVRLFIEWLVRGGPSSGAPPPS-NH2; N-terminus assumed), on human GLP-1 receptor (setting [2]), the half-maximal effective concentration (EC50) was 0.037 nM. In data set [1], the “Formation rate … at 40° C.” value stood at 3.0 %/week.
On to `CCCCCCCCCCCCCCCCCC(=O)NCCOCCOCC(=O)NCCOCCOCC(=O)NCCOCCOCC(=O)NCCCC[C@H](NC(=O)[C@H](CCC(N)=O)NC(=O)[C@H](CCCNC(=N)N)NC(=O)[C@H](CO)NC(=O)[C@H](CC(C)C)NC(=O)[C@H](CC(=O)O)NC(=O)[C@H](CO)NC(=O)[C@@H](NC(=O)[C@H](Cc1ccccc1)NC(=O)[C@@H](NC(=O)CNC(=O)[C@H](CCC(=O)O)NC(=O)CNC(=O)[C@@H](N)Cc1c[nH]cn1)[C@@H](C)O)[C@@H](C)O)C(=O)N[C@@H](CCC(=O)O)C(=O)N[C@@H](CCC(=O)O)C(=O)N[C@@H](CCC(=O)O)C(=O)N[C@@H](C)C(=O)N[C@H](C(=O)N[C@@H](CCCNC(=N)N)C(=O)N[C@@H](CC(C)C)C(=O)N[C@@H](Cc1ccccc1)C(=O)N[C@H](C(=O)N[C@@H](CCC(=O)O)C(=O)N[C@@H](Cc1c[nH]c2ccccc12)C(=O)N[C@@H](CC(C)C)C(=O)N[C@H](C(=O)N[C@@H](CCCNC(=N)N)C(=O)NCC(=O)NCC(=O)N1CCC[C@H]1C(=O)N[C@@H](CO)C(=O)N[C@@H](CO)C(=O)NCC(=O)N[C@@H](C)C(=O)N1CCC[C@H]1C(=O)N1CCC[C@H]1C(=O)N1CCC[C@H]1C(=O)N[C@@H](CO)C(N)=O)C(C)C)[C@@H](C)CC)C(C)C` [Example 26, N-ε^14-(2-(2-(2-(2-(2-(2-(2-(2-(2-(Octadecanoylamino)ethoxy)ethoxy)acetylamino)ethoxy)ethoxy)acetyl-amino)ethoxy)ethoxy)acetyl)[Arg^12,Lys^14,Val^27,Arg^28]Exendin-4-(1-39)-amide] (H-HGEGTFTSDLSRQK([AEEA-AEEA-AEEA-Stearoyl])EEEAVRLFIEWLVRGGPSSGAPPPS-NH2; N-terminus assumed), for which the EC50 at human GLP-1 receptor (setting [2]) amounted to 0.088 nM. In data set [1], the “Formation rate … at 40° C.” value turned out to be 2.0 %/week.
For the compound `CCCCCCCCCCCCCCCC(=O)N[C@@H](CCC(=O)NCCOCCOCC(=O)NCCOCCOCC(=O)NCCCC[C@H](NC(=O)[C@@H](NC(=O)[C@H](C)NC(=O)[C@H](CCC(=O)O)NC(=O)[C@H](CCC(=O)O)NC(=O)[C@H](CCC(=O)O)NC(=O)[C@H](CC(C)C)NC(=O)[C@H](CCC(N)=O)NC(=O)[C@H](CCC(N)=O)NC(=O)[C@H](CO)NC(=O)[C@H](CC(C)C)NC(=O)[C@H](CC(=O)O)NC(=O)[C@H](CO)NC(=O)[C@@H](NC(=O)[C@H](Cc1ccccc1)NC(=O)[C@@H](NC(=O)CNC(=O)[C@H](CCC(=O)O)NC(=O)CNC(=O)[C@@H](N)Cc1c[nH]cn1)[C@@H](C)O)[C@@H](C)O)C(C)C)C(=O)N[C@@H](CC(C)C)C(=O)N[C@@H](Cc1ccccc1)C(=O)N[C@H](C(=O)N[C@@H](CCC(=O)O)C(=O)N[C@@H](Cc1c[nH]c2ccccc12)C(=O)N[C@@H](CC(C)C)C(=O)N[C@@H](CCCCN)C(=O)N[C@@H](CCC(N)=O)C(=O)NCC(=O)NCC(=O)N1CCC[C@H]1C(=O)N[C@@H](CO)C(=O)N[C@@H](CO)C(=O)NCC(=O)N[C@@H](C)C(=O)N1CCC[C@H]1C(=O)N1CCC[C@H]1C(=O)N1CCC[C@H]1C(=O)N[C@@H](CO)C(N)=O)[C@@H](C)CC)C(=O)O` [Example 48] (H-HGEGTFTSDLSQQLEEEAVK([AEEA-AEEA-γGlu-Palmitoyl])LFIEWLKQGGPSSGAPPPS-NH2; N-terminus assumed), on human GLP-1 receptor, a half-maximal effect (EC50) was put at 0.021 nM.
In the case of Exendin-4 [reference compound], the “formation rate of peptide related impurities” value in data set [1] (100 nmol/ml in 50 mM phosphate buffer with 0.05% Tween 80, pH 8.0) was 40-50 % per week.

As a reminder, the EC50 is the concentration giving half of the maximal effect.
